Data published in US20220213030A1, “AMINOGUANIDINE HYDRAZONES AS RETROMER STABILIZERS USEFUL FOR TREATING NEUROLOGICAL DISEASES” (OSPEDALE SAN RAFFAELE SRL, priority 2019, published 2022).
Entries after “also recorded” stand apart in the source; their conditions may differ.

Assays:
[1] = test system: LC3; assay: pHfluorin-LC3 autophagy assay in Neuro2a clone 7B11; assay type: cell-based, mouse; details: 48 hours
Procedure: Besides increasing the functionality of lysosomes we hypothesised that compound 2a could also enhance the autophagy system. Therefore we used a pHfluorin-LC3-based assay to monitor the autophagy process in living Neuro2a cells. We have established in our laboratory a Neuro2a stable cell clone (7B11) that expresses the Microtubule-associated protein 1A/1B-light chain 3 (LC3) coupled with the ph-sensitive GFP/phlourin.
Neuro2a-7B11 cells were incubated with increasing concentrations of compound 2a (0.1-100 μM) as well as with the control molecules Bafilomycin Al and Torin-1. After 48 hours the GFP/phluorin signal, which is ph-sensitive, was measured by flow cytometry and fold changes calculated over untreated cells.
Autophagy assay were done using a stable Neuro2a cell clone expressing the pHluorin-mKate2-tagged human LC3 plasmids, Cell clones were generated according our published methods (Mazzocchi 2016). Upon transfection, cells were selected by 400 μg/mL G418 Disulfate Salt Solution (Sigma-Aldrich, St. Louis, Mo.) and further cloned by limiting dilution. […] Neuro2a 7B11 cells were treated with Compound 2a (0.1-100 μM) for 48 hours then MFI levels of the pHfluorin were measured in living cells by flow cytometry.

[2] = target: T1, VPS35 (Mus musculus, UniProt Q9EQH3+Q9QZ88); assay: VPS35 western blot in spinal cord extracts of G93A mice; assay type: in vivo; details: 10 mg/kg, day 100
Procedure: (§1) Lumbar spinal cords were dissected from saline perfused mice and rapidly homogenized in the following lysis buffer: Tris-HCl 10 mM pH 8, EDTA pH 8 1 mM, NaCl 100 mM, NP40 1% and protease inhibitor cocktail (Sigma). Protein extracts were obtained using a tight-fitting glass Potter tissue grinder (1 ml; Wheaton) and then sonicated at a frequency of 20 kHz (10 times-1s). Protein lysates from cells cultures were obtained from plates receiving PBS1× washing and subsequently the lysis buffer followed by sonication. Protein concentrations were measured by BCA protein assay kit (Thermofisher) according to the manufacturer's recommendations. Ten μg of protein extract was loaded on 10% Mini-PROTEAN TGX Stain-Free precast gels for PAGE (Bio-Rad). Gel electrophoresis was performed at 100 V for 2 hours. Gels were transferred on Immobilon®-P PVDF membrane according to the manufacturer's instructions (Millipore). Blots were blocked in 5% BSA in Tris buffered saline plus 0.1% Tween-20 (TBS-T) for 1 hour before receiving primary antibodies: goat α-VPS35 1:800 (ab10099, Abcam); rabbit α-VPS26b 1:1000 (15915-1-AP, ProteinTech); rabbit α-VPS29 1:1000 (ab236796 Abcam); mouse α-βActin 1:25000 (Sigma); mouse α-Golgin97 1:1000 (Invitrogen); mouse α-Ubiquitin 1:500 (Merk) overnight at 4° C. on shaker. […] Quantifications were done using the Image Lab 6.0.1 software (Bio-Rad).

[3] = target: T1, VPS35; assay: VPS35 levels in Neuro2a cells by Western blot (screening of amino guanidine hydrazones); assay type: cell-based; set-up: endogenous in cells; host or cells: Neuro2a; details: 48 hours
Procedure: To functionally screen the majority of synthetized amino guanidine hydrazones of the invention and determine their effects on the retromer complex, we incubated Neuro2a cells with each synthetized molecule at the concentration of 10 μM.
The test was executed in triplicate for each tested compound of the invention, cells lysates were established after 48 hours' incubation, and levels of VPS35 were normalized on the housekeeping gene β-Actin by Western blot. We observed a preliminary SAR among the compounds.
Fold changes are calculated over normalized VPS35 levels measured in vehicle-treated cells.
Neuro2a cells were seeded on 12 wells multiwell at the concentration of 100 000 cells/well. Cells were incubated with each compound, including the standard R55, at 10 μM for 48 hours. Cells were then washed in PBS 1× and lysed in a buffer containing Tris-HCl 10 mM pH8, EDTA 1 mM pH8, NaCl 100 mM, NP40 1%, with protease inhibitor cocktail (Sigma) 1×. Using a cell scraper total lysates were collected from each well, quantified with BCA (BCA protein assay, Thermofisher). Five μg were resolved on precast 10% acrylamide gel (Biorad). Proteins were transferred to a PVDF membrane (Millipore) and western blot were performed using the following antibodies: goat αVPS35 (1:1000), mouse α-βActin (1:10000). Detection of proteins was obtained by a chemiluminescence detection kit (PerkinElmer).

[4] = test system: VPS26b; assay: VPS26b western blot in spinal cord extracts of G93A mice; assay type: in vivo, mouse; details: 10 mg/kg, day 100
Procedure: as §1

[5] = test system: Sortilin; assay: Sortilin MFI in MNs of G93A mice; assay type: in vivo, mouse; details: 10 mg/kg, day 100
Text: We next assayed retromer proteins labelling sections of mice sacrificed at day 100 for VPS35 and NeuN. […] Similarly, we observed that VPS26 levels were increased in G93A mice receiving compound 2a (FIG. 11B). We further corroborated our experimental finding observing that compound 2a increased retromer functionality. The cation-independent mannose 6-phosphate receptor (CI-MPR) is a cargo (Arighi et al., 2004) of the retromer complex that is unstable in VPS26 knockout cells (Seaman 2004). We observed a substantial reduction of CI-MPR MFI levels in MNs of vehicle-treated G93A mice when compared with WT litters (FIG. 11C). […]
Fluorescence intensity levels of VPS35, VPS26, Sortilin, CTSD and Ubiquitin were calculated using NHI-Image J software (US National Institutes of Health) according to the following protocol: stacks of confocal images were used to generate the maximal projections (Las-X) and then post-processed by NHI-Image J to crop single NeuN^+ MNs from the ventral horn of the spinal cord. We next performed background (calculated on adjacent slices only receiving secondary antibodies) subtraction for each channel, before applying the NHI-Image J mean filter (with radius 2.0 pixels) to calculate mean NeuN fluorescence levels in individual MN. […] On this selected ROI, we calculated mean fluoresce levels (MFI) of each protein.

**Q.** `N=C(N)NN=Cc1cccc(C=NNC(=N)N)c1` [Compound 2a, 1,3-Bis-amino guanidine phenyl hydrazone] was tested. Which “GFP/phluorin signals (fold changes over untreated cells)” value ([1]; 0.1 and 1μM) did it give?
**A.** Its value is “did not change”.

**Q.** What about the “GFP/phluorin fluorescence levels (fold changes over untreated cells)” value ([1]; 10 and 100 μM) of the same compound?
**A.** Its value is “significant reduction of fluorescence levels”.

**Q.** And the “VPS35 levels in SC extracts (WB)” value [2]?
**A.** The value was “increase VPS35 and VPS26b levels”.

**Q.** What about the “Mean fold changes (VPS35 levels normalized on β-Actin, over vehicle-treated cells)” value ([3]; 10 μM, independent cultures n=3) of the same compound?
**A.** Its value is 1.951.

**Q.** What about the “VPS35 levels (in words)” value ([3]; compounds at 10 μM) of the same compound?
**A.** Its value is “able to consistently increase VPS35 levels with a limited variability among replicates; also recorded: increased”.

**Q.** What about the “VPS26b levels in SC extracts (WB)” value [4] of the same compound?
**A.** Its value is “increase VPS35 and VPS26b levels”.

**Q.** What about the “Sortilin MFI levels” value [5] of the same compound?
**A.** Its value is “significantly increased Sortilin levels”.
